Source: ChEMBL document CHEMBL1143142, “5-Substituted 1H-pyrrolo[3,2-b]pyridines as inhibitors of gastric acid secretion” (Bioorg Med Chem, 2008)

Assays:
[1] = Distribution coefficient, log D at pH 7.4; details: octanol/water
[2] = Dissociation constant, pKa of the compound; type: physicochemical
Gastric gland = assay: Inhibition of gastric acid secretion in rabbit gastric gland assessed as accumulation of 14C]-[…]; type: functional, tissue-based; details: Oryctolagus cuniculus
[3] = Inhibition of hog gastric mucosa H/+K+ ATPase; type: tissue-based

logD [1] | pKa [2] | IC50 (Gastric gland) [µM] | Log IC50 [3] | SMILES
2.95 | 7.2 | 63.1 | -5.6 | Cc1cccc(C)c1CNc1cc(C(=O)N(C)C)nc2c(CO)c(C)[nH]c12
> 4.8 | 6.02 | 3.16 | -5 | Cc1cccc(C)c1CNc1cc(C(=O)N(C)C)nc2c(Br)c(C)[nH]c12
> 4.8 | 5.84 | 10 | -5 | CCc1cccc(C)c1CNc1cc(C(=O)N(C)C)nc2c(Br)c(C)[nH]c12
4.6 | 7.57 | 0.251 | -6.6 | CCc1cccc(C)c1CNc1cc(C(=O)N(C)C)nc2c(C)c(C)[nH]c12
3.53 | 7.13 | 15.8 | -4.6 | Cc1cccc(C)c1CNc1cc(C(=O)N(C)C)nc2c(C)c(C)n(C)c12
3.62 | 7.3 | 2.51 | -6.1 | Cc1cc2nc(C(=O)N(C)C)cc(NCc3c(C)cccc3C)c2[nH]1
 | 7.56 | 0.251 | -6.9 | Cc1cccc(C)c1CNc1cc(C(=O)N(C)C)nc2c(C)c(C)[nH]c12

More lines, now with the values behind:

SMILES | logD [1] | pKa [2] | IC50 (Gastric gland) [µM] | Log IC50 [3]
CCc1cccc(C)c1CNc1cc(C(=O)N(C)C)nc2c(CO)c(C)[nH]c12 | 3.27 | 7.07 | 50.1 | -5.7
Cc1cccc(C)c1CNc1cc(C(=O)N(C)C)nc2c(C)c(C)n(Cc3ccccc3)c12 | 5.2 | 6.86 | 1 | -5.1
Cc1cccc(C)c1CNc1cc(C(=O)N(C)C)nc2c(CO)c(C)n(Cc3ccccc3)c12 | 3.87 | 6.52 | 10 | -4.6
CNC(=O)c1cc(NCc2c(C)cccc2C)c2[nH]c(C)cc2n1 | 2.96 | 7.33 | 1.58 | -5.5
CNC(=O)c1cc(NCc2c(C)cccc2C)c2[nH]c(C)c(Br)c2n1 |  | 7.39 | 5.01 | < -4
CCc1cccc(C)c1CNc1cc(C(=O)N(C)C)nc2cc(C)[nH]c12 | 4.1 | 7.39 | 3.16 | -5.9
Cc1cccc(C)c1CNc1cc(C(=O)N(C)C)nc2c(C)c(C)n(CC(C)O)c12 (centres undefined) | 3.4 | 7.19 | 3.98 | -4.8
